From the supplement of paper PMC11208160

assay: recombinant UMI read abundance after kanamycin selection (control-corrected) (log10(CPM+1)); higher = more efficient recombination; extreme values may be limits of the assay; sequences stand for … in AGTGCAGAGAAAATCGGCCAGTTTTCTCTGCCTGCAGTCCGCATGCCGTGGGACCCCTTGGGTTCTAACCTGTTGCCTAGATTTATGCAGCGGACTGCCTTTCTCCCAAAGTGATAAACCGG…AGGTTGGTTTCACT; site = the 11-nt donor
Method: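 Pooled E. coli donor-specificity screen for the IS621 bridge recombinase. Each library member carries a reprogrammed 11-nt donor and a full-length LE bridge RNA expressed in cis from the natural promoter, with a paired donor-binding loop (8-nt LDG + 4-nt RDG) and a target-binding loop fixed to T5. It is co-electroporated with a T5 target plasmid; recombinase is induced with 0.07 mM IPTG and recombinants are selected on kanamycin. UMIs are counted as CPM, averaged over two biological replicates and corrected by the unselected control. Molecule = full bridge RNA written as DNA, built from the T5 scaffold: LDG = donor specificity nt 1-8, RDG = reverse complement of nt 8-11.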
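Note: IS621 bridge recombinase in Escherichia coli cells against a fixed T5 target plasmid.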

Row | Sequence | recombinant UMI read abundance (log10)
1 | AATCGTCCATGGACCGGTTTTCCCGGTAATCCGTATTTGAT (site AAGCGTCCTAT) | 0.432
2 | AATCGTCCATGGACCGGTTTTCCCGGTAATCCGTATTTGAT (site AATCGTCCTAT) | 0.306
3 | AATCTACCATGGACCGGTTTTCCCGGTAATCCGTATTTGAG (site AATCTACCTCT) | 0.0184
4 | AATCTCGCATGGACCGGTTTTCCCGGTAATCCGTATTTGCG (site AATCTCGCTCG) | 0.0146
5 | AATGCCTCATGGACCGGTTTTCCCGGTAATCCGTATTTGAG (site AATGCCTCTCT) | 0.693
6 | AATGTATCATGGACCGGTTTTCCCGGTAATCCGTATTTGCT (site AATGTAACTAG) | 0.796
7 | AATGTATCATGGACCGGTTTTCCCGGTAATCCGTATTTGCT (site AATGTACCTAG) | 0.03
8 | AATGTATCATGGACCGGTTTTCCCGGTAATCCGTATTTGCT (site AATGTAGCTAG) | 0
9 | AATGTATCATGGACCGGTTTTCCCGGTAATCCGTATTTGCT (site AATGTATCTAG) | 2.56
10 | AATTAGGCATGGACCGGTTTTCCCGGTAATCCGTATTTGGA (site AATTAAGCTTC) | 0.133
11 | AATTAGGCATGGACCGGTTTTCCCGGTAATCCGTATTTGGA (site AATTACGCTTC) | 0.011
12 | AATTAGGCATGGACCGGTTTTCCCGGTAATCCGTATTTGGA (site AATTAGGCTTC) | 0.746
13 | AATTAGGCATGGACCGGTTTTCCCGGTAATCCGTATTTGGA (site AATTATGCTTC) | 0.317
14 | AATTATTCATGGACCGGTTTTCCCGGTAATCCGTATTTGGA (site AATTATACTTC) | 0.554
15 | AATTATTCATGGACCGGTTTTCCCGGTAATCCGTATTTGGA (site AATTATCCTTC) | 0.553
16 | AATTATTCATGGACCGGTTTTCCCGGTAATCCGTATTTGGA (site AATTATGCTTC) | 0.0186
17 | AATTATTCATGGACCGGTTTTCCCGGTAATCCGTATTTGGA (site AATTATTCTTC) | 2.28
18 | AATTCGTCATGGACCGGTTTTCCCGGTAATCCGTATTTGAA (site AATTCGTCTTT) | 0.559
19 | AATTGTGCATGGACCGGTTTTCCCGGTAATCCGTATTTGGA (site AATTATGCTTC) | 0.773
20 | AATTGTGCATGGACCGGTTTTCCCGGTAATCCGTATTTGGA (site AATTCTGCTTC) | 0.00901
21 | AATTGTGCATGGACCGGTTTTCCCGGTAATCCGTATTTGGA (site AATTGTGCTTC) | 0.895
22 | AATTGTGCATGGACCGGTTTTCCCGGTAATCCGTATTTGGA (site AATTTTGCTTC) | 0.0805
23 | AATTTAGCATGGACCGGTTTTCCCGGTAATCCGTATTTGTC (site AATTTAGCTGA) | 0.582
24 | AATTTTGCATGGACCGGTTTTCCCGGTAATCCGTATTTGGA (site AATTATGCTTC) | 0.473

Row | Sequence | recombinant UMI read abundance (log10)
25 | AATTTTGCATGGACCGGTTTTCCCGGTAATCCGTATTTGGA (site AATTCTGCTTC) | 0.118
26 | AATTTTGCATGGACCGGTTTTCCCGGTAATCCGTATTTGGA (site AATTGTGCTTC) | 0.154
27 | AATTTTGCATGGACCGGTTTTCCCGGTAATCCGTATTTGGA (site AATTTTGCTTC) | 1
28 | ACAAAGACATGGACCGGTTTTCCCGGTAATCCGTATTTGCA (site ACAAAGACTTG) | 3.1
29 | ACAAAGACATGGACCGGTTTTCCCGGTAATCCGTATTTGCA (site AGGAAGACTTG) | 2.33
30 | ACAAAGCCATGGACCGGTTTTCCCGGTAATCCGTATTTGGC (site ACAAAGCCTGC) | 0
31 | ACAAGAACATGGACCGGTTTTCCCGGTAATCCGTATTTGTC (site ACAAGAACTGA) | 1.75
32 | ACAAGAACATGGACCGGTTTTCCCGGTAATCCGTATTTGTC (site ACACGAACTGA) | 0.00498
33 | ACAAGAACATGGACCGGTTTTCCCGGTAATCCGTATTTGTC (site ACAGGAACTGA) | 0
34 | ACAAGAACATGGACCGGTTTTCCCGGTAATCCGTATTTGTC (site ACATGAACTGA) | 0
35 | ACAAGGACATGGACCGGTTTTCCCGGTAATCCGTATTTGCG (site ACAAGGACTCG) | 2.42
36 | ACAAGGGCATGGACCGGTTTTCCCGGTAATCCGTATTTGAC (site ACAAGGGCTGT) | 2.69
37 | ACAAGTGCATGGACCGGTTTTCCCGGTAATCCGTATTTGAC (site ACAAGTGCTGT) | 2.62
38 | ACAAGTTCATGGACCGGTTTTCCCGGTAATCCGTATTTGTC (site ACAAGTTCTGA) | 0
39 | ACAATATCATGGACCGGTTTTCCCGGTAATCCGTATTTGCA (site ACAATATCTTG) | 2.85
40 | ACAATATCATGGACCGGTTTTCCCGGTAATCCGTATTTGCA (site ACACTATCTTG) | 1.83
41 | ACAATATCATGGACCGGTTTTCCCGGTAATCCGTATTTGCA (site ACAGTATCTTG) | 2.35
42 | ACAATATCATGGACCGGTTTTCCCGGTAATCCGTATTTGCA (site ACATTATCTTG) | 1.81
43 | ACAATCTCATGGACCGGTTTTCCCGGTAATCCGTATTTGCA (site ACAATCTCTTG) | 2.51
44 | ACAATCTCATGGACCGGTTTTCCCGGTAATCCGTATTTGCA (site ACAGTATCTTG) | 1.54
45 | ACACACCCATGGACCGGTTTTCCCGGTAATCCGTATTTGTG (site ACACACCCTCA) | 0.012
46 | ACACATCCATGGACCGGTTTTCCCGGTAATCCGTATTTGAA (site ACACATCCTAT) | 0.229
47 | ACACATCCATGGACCGGTTTTCCCGGTAATCCGTATTTGAA (site ACACATCCTCT) | 0
48 | ACACATCCATGGACCGGTTTTCCCGGTAATCCGTATTTGAA (site ACACATCCTGT) | 0

Row | Sequence | recombinant UMI read abundance (log10)
49 | ACACATCCATGGACCGGTTTTCCCGGTAATCCGTATTTGAA (site ACACATCCTTT) | 1.72
50 | ACACATCCATGGACCGGTTTTCCCGGTAATCCGTATTTGAG (site ACACATCCTAT) | 0.549
51 | ACACATCCATGGACCGGTTTTCCCGGTAATCCGTATTTGAG (site ACACATCCTCT) | 0.668
52 | ACACATCCATGGACCGGTTTTCCCGGTAATCCGTATTTGAG (site ACACATCCTGT) | 0
53 | ACACATCCATGGACCGGTTTTCCCGGTAATCCGTATTTGAG (site ACACATCCTTT) | 0.381
54 | ACACCTACATGGACCGGTTTTCCCGGTAATCCGTATTTGTG (site ACAACTACTCA) | 0.0154
55 | ACACCTACATGGACCGGTTTTCCCGGTAATCCGTATTTGTG (site ACACCTACTCA) | 0.165
56 | ACACCTACATGGACCGGTTTTCCCGGTAATCCGTATTTGTG (site ACAGCTACTCA) | 0.0267
57 | ACACCTACATGGACCGGTTTTCCCGGTAATCCGTATTTGTG (site ACATCTACTCA) | 0.028
58 | ACACGAGCATGGACCGGTTTTCCCGGTAATCCGTATTTGTC (site ACACGAACTGA) | 2.63
59 | ACACGAGCATGGACCGGTTTTCCCGGTAATCCGTATTTGTC (site ACACGACCTGA) | 0
60 | ACACGAGCATGGACCGGTTTTCCCGGTAATCCGTATTTGTC (site ACACGAGCTGA) | 2.61
61 | ACACGAGCATGGACCGGTTTTCCCGGTAATCCGTATTTGTC (site ACACGATCTGA) | 2.27
62 | ACACTAGCATGGACCGGTTTTCCCGGTAATCCGTATTTGCA (site ACACTAGCTTG) | 1.05
63 | ACACTAGCATGGACCGGTTTTCCCGGTAATCCGTATTTGCA (site ACAGTATCTTG) | 0.00925
64 | ACACTTACATGGACCGGTTTTCCCGGTAATCCGTATTTGGG (site ACACTTACTCC) | 0.464
65 | ACACTTCCATGGACCGGTTTTCCCGGTAATCCGTATTTGAC (site ACACATCCTGT) | 1.66
66 | ACACTTCCATGGACCGGTTTTCCCGGTAATCCGTATTTGAC (site ACACCTCCTGT) | 1.29
67 | ACACTTCCATGGACCGGTTTTCCCGGTAATCCGTATTTGAC (site ACACGTCCTGT) | 1.08
68 | ACACTTCCATGGACCGGTTTTCCCGGTAATCCGTATTTGAC (site ACACTTCCTGT) | 0.338
69 | ACAGAATCATGGACCGGTTTTCCCGGTAATCCGTATTTGCT (site ACAGAATCTAG) | 2.19
70 | ACAGAATCATGGACCGGTTTTCCCGGTAATCCGTATTTGCT (site ACAGTATCTTG) | 0.97
71 | ACAGAATCATGGACCGGTTTTCCCGGTAATCCGTATTTGGA (site ACAGAATCTTC) | 2.48
72 | ACAGAATCATGGACCGGTTTTCCCGGTAATCCGTATTTGGA (site ACAGTATCTTG) | 0
